The values below come from US20260286316A1, “METHOD OF PRODUCTION OF MODIFIED PHAGE AND METHOD OF TREATMENT USING SAME” (priority 2022, published 2026).

The experiment deals with phage non-sensitive S. aureus strains (C43, C330, C285 and C319). The experiment can be described thus: Phage and clindamycin combination treatment (OD600). In kind it is cell-based, Staphylococcus aureus. The settings on record: ½ MIC clindamycin only or phage only (MOI=1), 24 hours. The text has this: FIG. 6 provides graphical results showing that the combination of S. aureus phage and ½ MIC clindamycin kills non-sensitive S. aureus strains: (A) S. aureus C43 treated with APTC-SA-2 and ½ MIC clindamycin; (B) S. aureus C330 treated with APTC-SA-2 and ½ MIC clindamycin; (C) S. aureus ATCC25923 treated with APTC-SA-2 and ½ MIC clindamycin; (D) S. aureus C285 treated with APTC-SA-12 and ½ MIC clindamycin; (E) S. aureus C319 treated with APTC-SA-12 and ½ MIC clindamycin; and (F) S. aureus ATCC25923 treated with APTC-SA-12 and ½ MIC clindamycin. Significance was determined compared to untreated control. Data expressed as mean±SEM for three independent experiments. ****, p<0.0001; ns, no significant. C=clindamycin;
A phage and clindamycin synergy assay was performed using 96 well plates. In brief, selected S. aureus strains (phage non-sensitive) were grown on 1.5% TSA at 37° C. overnight. A single colony was transferred to TSB to generate a culture with a starting concentration of 5×10^5 CFU/ml. Phages were added to the bacteria culture at a MOI of 1 according to phage titers. Clindamycin was added to the cultures at ½ MIC (according to the MIC assay result). Optical density (Gorski A et al., Antibiotics (Basel) 9 (11), 2020) readings at 600 nm were recorded after 24 hours.

As to `CCC[C@@H]1C[C@@H](C(=O)N[C@@H]([C@H]2O[C@H](SC)[C@H](O)[C@@H](O)[C@H]2O)[C@H](C)Cl)N(C)C1` [clindamycin], the “growth of S. aureus bacteria vs control, single agent” value is reported as “similar”.
